Experimental data as given in patent US10167279B2 (NOVARTIS AG, priority 2014, dated 2019).

Molecular target: C-Raf FL (Homo sapiens (Human), UniProt P04049, Y340E/Y341E)
Experiment: In vitro Raf activity determination (Alpha Screen, phospho-MEK), C-Raf FL (full length, Y340E/Y341E)
Format: biochemical
Conditions: ATP 1 μM; 60 min pre-incubation; 1 hour reaction; column head does not say FL or TR
Outline: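 Sf9-expressed C-Raf incubated with biotinylated kinase-dead MEK1 (K97R) in 50 mM Tris pH 7.5, 15 mM MgCl2, 0.01% BSA, 1 mM DTT with compound, 60 min at room temperature. Phospho-MEK detected by anti-p-MEK AlphaScreen luminescence; IC50 by non-linear regression.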

Chain of C-Raf FL (P04049 whole entry Y340E/Y341E): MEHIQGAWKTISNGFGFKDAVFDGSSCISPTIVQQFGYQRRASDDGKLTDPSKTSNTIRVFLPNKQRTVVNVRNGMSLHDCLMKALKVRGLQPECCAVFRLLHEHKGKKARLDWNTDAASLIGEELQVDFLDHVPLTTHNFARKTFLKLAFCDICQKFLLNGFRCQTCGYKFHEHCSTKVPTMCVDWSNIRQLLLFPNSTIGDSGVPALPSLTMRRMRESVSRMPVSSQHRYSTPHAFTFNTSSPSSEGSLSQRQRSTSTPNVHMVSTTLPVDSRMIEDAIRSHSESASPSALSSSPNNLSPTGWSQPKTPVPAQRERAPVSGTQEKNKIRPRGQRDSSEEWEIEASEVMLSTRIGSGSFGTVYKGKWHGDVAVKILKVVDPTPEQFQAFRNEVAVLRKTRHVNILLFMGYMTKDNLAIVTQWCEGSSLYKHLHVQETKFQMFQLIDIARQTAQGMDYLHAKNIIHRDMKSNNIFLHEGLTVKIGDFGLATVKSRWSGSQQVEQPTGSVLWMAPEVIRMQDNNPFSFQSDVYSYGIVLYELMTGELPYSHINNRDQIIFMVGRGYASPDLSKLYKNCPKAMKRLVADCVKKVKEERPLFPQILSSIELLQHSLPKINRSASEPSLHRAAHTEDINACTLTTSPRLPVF
Chain of C-Raf FL (P63104 whole entry partner): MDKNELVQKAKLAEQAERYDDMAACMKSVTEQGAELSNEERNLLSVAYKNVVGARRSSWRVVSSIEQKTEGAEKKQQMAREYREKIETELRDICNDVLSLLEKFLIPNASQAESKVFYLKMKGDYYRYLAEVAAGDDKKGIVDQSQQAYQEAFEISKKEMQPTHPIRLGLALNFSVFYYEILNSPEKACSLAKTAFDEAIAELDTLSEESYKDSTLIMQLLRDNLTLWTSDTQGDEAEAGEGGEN

Going from `Cc1ccc(NC(=O)c2ccnc(C(F)(F)F)c2)cc1-c1cc(NCCO)nc(C2CCOCC2)c1` [Example 172, N-(3-(2-((2-hydroxyethyl)amino)-6-(tetrahydro-2H-pyran-4-yl)pyridin-4-yl)-4-methylphenyl)-2-(trifluoromethyl) isonicotinamide] to `Cc1ncc(NC(=O)c2ccnc(C(F)(F)F)c2)cc1-c1cc(NCCO)nc(C2CCOCC2)c1` [Example 181, N-(2′-((2-hydroxyethyl)amino)-2-methyl-6′-(tetrahydro-2H-pyran-4-yl)-[3,4′-bipyridin]-5-yl)-2-(trifluoromethyl) isonicotinamide], the IC50 falls from 1.99 nM to 0.393 nM (5.1-fold). The second is the more potent here.

Compared with `CCOc1ncc(-c2cc(NC(=O)c3cc(C(F)(F)F)cc(C(C)(C)N)n3)ccc2C)cc1C1(O)COC1` [Example 147, 6-(2-aminopropan-2-yl)-N-(3-(6-ethoxy-5-(3-hydroxyoxetan-3-yl)pyridin-3-yl)-4-methylphenyl)-4-(trifluoromethyl)picolin-amide], `COc1ncc(-c2cc(NC(=O)c3cc(C(F)(F)F)cc(C(C)(C)N)n3)ccc2C)cc1C1(O)COC1` [Example 19, 6-(2-aminopropan-2-yl)-N-(3-(5-(3-hydroxyoxetan-3-yl)-6-methoxypyridin-3-yl)-4-methylphenyl)-4-(trifluoromethyl)picolinamide] is 1.6-fold higher in IC50: 4.51 nM for the first, 7 nM for the second. The first is the more potent here.

Compared with `Cc1ncc(NC(=O)c2cccc(C(F)(F)F)c2)cc1-c1cc(C2(O)COC2)cc(C2(F)COC2)c1` [Example 139, N-(5-(3-(3-fluorooxetan-3-yl)-5-(3-hydroxyoxetan-3-yl)phenyl)-6-methylpyridin-3-yl)-3-(trifluoromethyl)benzamide], `Cc1ccc(NC(=O)c2ccnc(C(C)(C)F)c2)cc1-c1cc(C2(O)COC2)cc(C2(F)COC2)c1` [Example 137, N-(3′-(3-fluorooxetan-3-yl)-5′-(3-hydroxyoxetan-3-yl)-6-methyl-[1,1′-biphenyl]-3-yl)-2-(2-fluoropropan-2-yl)isonicotinamide] is 2.8-fold higher in IC50: 1.18 nM for the first, 3.32 nM for the second. The first is the more potent here.

`Cc1ccc(NC(=O)c2cncc(C(F)(F)F)c2)cc1-c1cc(OC[C@H](O)CO)nc(C2CCOCC2)c1` [Example 281, (R)-N-(3-(2-(2,3-dihydroxypropoxy)-6-(tetrahydro-2H-pyran-4-yl)pyridin-4-yl)-4-methylphenyl)-5-(trifluoromethyl) nicotinamide] and `Cc1ccc(NC(=O)c2cc(C(F)(F)F)ccn2)cc1-c1cc(OC[C@H](O)CO)nc(C2CCOCC2)c1` [Example 283, (R)-N-(3-(2-(2,3-dihydroxypropoxy)-6-(tetrahydro-2H-pyran-4-yl)pyridin-4-yl)-4-methylphenyl)-4-(trifluoromethyl) picolinamide] are within 1.5-fold of each other in IC50: 0.05 nM for the first, 0.07 nM for the second.

Going from `Cc1ccc(NC(=O)c2ccnc(C(F)F)c2)cc1-c1cc(OCCO)nc(C2(F)COC2)c1` [Example 53] to `Cc1ccc(NC(=O)c2ccnc(C(F)(F)F)c2)cc1-c1cc(OCCO)nc(C2(CF)COC2)c1` [Example 57, N-(3-(2-(3-(fluoromethyl)oxetan-3-yl)-6-(2-hydroxyethoxy)pyridin-4-yl)-4-methylphenyl)-2-(trifluoromethyl)isonicotin-amide], the IC50 falls from 0.624 nM to 0.149 nM (4.2-fold). The second is the more potent here.

`CCOc1ncc(-c2cc(NC(=O)c3ccnc(C(C)(C)F)c3)cnc2C)cc1C1(F)CCOC1` (centres unmarked) [Example 298, N-(6′-ethoxy-5′-(3-fluorotetrahydro-furan-3-yl)-2-methyl-[3,3′-bipyridin]-5-yl)-2-(2-fluoropropan-2-yl)isonicotinamide] and `CCOc1ncc(-c2cc(NC(=O)c3ccnc(C(C)(C)C#N)c3)ccc2C)cc1C1(O)CCOC1` (centres unmarked) [Example 293, 2-(2-cyanopropan-2-yl)-N-(3-(6-ethoxy-5-(3-hydroxytetrahydro-furan-3-yl)pyridin-3-yl)-4-methylphenyl) isonicotinamide] are the same in IC50: 2 nM for the first, 2 nM for the second.

First: Cc1ccc(NC(=O)c2ccnc(C(F)(F)F)c2)cc1-c1cc(C2CCOCC2)c(OC(C)C)nn1 [Example 316, N-(3-(6-isopropoxy-5-(tetrahydro-2H-pyran-4-yl)pyridazin-3-yl)-4-methylphenyl)-2-(trifluoromethyl) isonicotinamide]
Second: CCOc1nnc(-c2cc(NC(=O)c3cc(C(F)(F)F)c(Cl)cn3)ccc2C)cc1C1CCOCC1 [Example 228, 5-chloro-N-(3-(6-ethoxy-5-(tetrahydro-2H-pyran-4-yl)pyridazin-3-yl)-4-methylphenyl)-4-(trifluoromethyl) picolinamide]
The IC50 of the first is 1.7-fold higher: 0.1 nM for the first, 0.06 nM for the second.

Compared with `Cc1ccc(NC(=O)c2cc(C(F)(F)F)cn(C)c2=O)cc1-c1cc(OCCO)nc(C2CCOCC2)c1` [Example 253, N-(3-(2-(2-hydroxyethoxy)-6-(terahydro-2H-pyran-4-yl)pyridin-4-yl)-4-methylphenyl)-1-methyl-2-oxo-5-(trifluoromethyl)-1,2-dihydropyridine-3-carboxamide], `Cc1ccc(NC(=O)c2cc(C(F)(F)F)c[nH]c2=O)cc1-c1cc(OCCO)nc(C2CCOCC2)c1` [Example 252, N-(3-(2-(2-hydroxyethoxy)-6-(terahydro-2H-pyran-4-yl)pyridin-4-yl)-4-methylphenyl)-2-oxo-5-(trifluoromethyl)-1,2-dihydropyridine-3-carboxamide] is 40-fold higher in IC50: 0.1 nM for the first, 4 nM for the second. The first is the more potent here.

First: Cc1ccc(NC(=O)c2cc(C(F)(F)F)c(Cl)cn2)cc1-c1cc(OCCO)nc(C2CCOCC2)c1 [Example 266, 5-chloro-N-(3-(2-(2-hydroxyethoxy)-6-(tetrahydro-2H-pyran-4-yl)pyridin-4-yl)-4-methylphenyl)-4-(trifluoromethyl) picolinamide]
Second: Cc1ccc(NC(=O)c2cc(C(F)(F)F)ccn2)cc1-c1cc(OCCO)nc(C2(CO)CCOCC2)c1 [Example 219]
The IC50 of the first is 4-fold higher: 2 nM for the first, 0.5 nM for the second.

First: COc1ncc(-c2cc(C(=O)Nc3ccnc(C(F)(F)F)c3)ccc2C)cc1C1(O)COC1 [Example 17, 3-(5-(3-hydroxyoxetan-3-yl)-6-methoxypyridin-3-yl)-4-methyl-N-(2-(trifluoromethyl)pyridin-4-yl)benzamide]
Second: Cc1ccc(NC(=O)c2ccnc(C(C)(F)F)c2)cc1-c1cnc(-c2cn(C)nc2C)c(C2(O)COC2)c1 [Example 12, 2-(1,1-difluoroethyl)-N-(3-(6-(1,3-dimethyl-1H-pyrazol-4-yl)-5-(3-hydroxyoxetan-3-yl)pyridin-3-yl)-4-methylphenyl)isonicotinamide]
The IC50 of the first is 2.9-fold lower: 0.7 nM for the first, 2 nM for the second.

First: Cc1ccc(NC(=O)c2ccnc(C(C)(F)F)c2)cc1-c1cc(OCCO)nc(C2(C)CCOCC2)c1 [Example 206, 2-(1,1-difluoroethyl)-N-(3-(2-(2-hydroxyethoxy)-6-(4-methyltetrahydro-2H-pyran-4-yl)pyridin-4-yl)-4-methylphenyl) isonicotinamide]
Second: Cc1ccc(NC(=O)c2ccnc(C(F)(F)F)c2)cc1-c1cc(C2CCOCC2)nc(N2CCC(C)(N)CC2)c1 [Example 321, N-(3-(2-(4-amino-4-methylpiperidin-1-yl)-6-(tetrahydro-2H-pyran-4-yl)pyridin-4-yl)-4-methylphenyl)-2-(trifluoromethyl)isonicotinamide]
The IC50 of the first is 4.4-fold higher: 0.4 nM for the first, 0.09 nM for the second. The second is the more potent here.

Work on `CCC(F)(F)c1cc(C(=O)Nc2cnc(C)c(-c3cc(C4CCOCC4)nc(N4CCC(O)CC4)c3)c2)ccn1` [Example 185, 2-(1,1-difluoropropyl)-N-(2′-(4-hydroxypiperidin-1-yl)-2-methyl-6′-(tetrahydro-2H-pyran-4-yl)-[3,4′-bipyridin]-5-yl) isonicotinamide] yielded an IC50 of 0.331 nM.
